# What was measured:
# Assay in all cases: combination Emax (second highest fraction inhibited in the dose matrix, 72 h); higher = more inhibition; extreme values may be limits of the assay
# 786-0 (Kidney Carcinoma) = tested on: 786-0 (Kidney Carcinoma)
# Method in brief: (§1)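 Cell lines in DMEM/F12 or RPMI with 10% FBS were plated in 1536-well plates, held 24 hours at 37°C, 5% CO2, then given two-drug dose matrices for 72 hours (DMSO typically 0.2%). Viability was read by CellTiter-Glo 2.0 luminescence and scaled as inhibition from 0 (vehicle wells) to 1 (blank wells). Combination Emax is the second-highest inhibition in the matrix; Bliss excess is observed combination effect minus expected EA + EB − EA·EB, EA and EB being single-agent effects.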
# [1] = tested on: AN3-CA (Endometrial Carcinoma)
# Method in brief: as §1
# [2] = tested on: BALL-1 (B-Lymphoblastic Leukemia)
# Method in brief: as §1
# [3] = tested on: CML-T1 (Chronic Myelogenous Leukemia)
# Method in brief: as §1
# [4] = tested on: Caov-3 (Ovarian Carcinoma)
# Method in brief: as §1
# ES-2 (Ovarian Carcinoma) = tested on: ES-2 (Ovarian Carcinoma)
# Method in brief: as §1
# [5] = tested on: HSC-3 (Oral Cavity Carcinoma)
# Method in brief: as §1
# HuO-3N1 (Osteosarcoma) = tested on: HuO-3N1 (Osteosarcoma)
# Method in brief: as §1
# [6] = tested on: LAMA-84 (Chronic Myelogenous Leukemia)
# Method in brief: as §1
# [7] = tested on: LOUCY (T-Lymphoblastic Leukemia)
# Method in brief: as §1
# [8] = tested on: NCI-H196 (Small Cell Lung Carcinoma)
# Method in brief: as §1
# [9] = tested on: NKM-1 (Acute Myeloid Leukemia)
# Method in brief: as §1
# [10] = tested on: OV-90 (Ovarian Carcinoma)
# Method in brief: as §1
# [11] = tested on: PANC-02-03 (Pancreatic Carcinoma)
# Method in brief: as §1
# [12] = tested on: PC-14 (Lung Adenocarcinoma)
# Method in brief: as §1
# [13] = tested on: RERF-LC-KJ (Lung Adenocarcinoma)
# Method in brief: as §1
# [14] = tested on: RL95-2 (Endometrial Carcinoma)
# Method in brief: as §1
# RT4 (Bladder Carcinoma) = tested on: RT4 (Bladder Carcinoma)
# Method in brief: as §1
# [15] = tested on: SJRH30 (Rhabdomyosarcoma)
# Method in brief: as §1
# [16] = tested on: SW684 (Other Solid Carcinomas)
# Method in brief: as §1
SMILES,combination Emax (786-0 (Kidney Carcinoma)),combination Emax [1],combination Emax [2],combination Emax [3],combination Emax [4],combination Emax (ES-2 (Ovarian Carcinoma)),combination Emax [5],combination Emax (HuO-3N1 (Osteosarcoma)),combination Emax [6],combination Emax [7],combination Emax [8],combination Emax [9],combination Emax [10],combination Emax [11],combination Emax [12],combination Emax [13],combination Emax [14],combination Emax (RT4 (Bladder Carcinoma)),combination Emax [15],combination Emax [16]
"Cc1c2c(nn1C)CSCc1cc(n(C)n1)CSc1cc(c3ccccc3c1)OCCCc1c(C(=O)O)n(C)c3c-2c(Cl)ccc13 [AZD5991] + C[C@@H](Nc1cc(F)cc(F)c1)c1cc(C(=O)N(C)C)cc2c(=O)cc(N3CCOCC3)oc12 [AZD8186] (first compound max 1 µM, 7x7, partner max 3 µM)",0.374,0.899,0.374,0.103,0.374,0.264,0.536,0.893,0.12,0.47,0.282,1,0.214,0.232,0.255,0.527,0.95,0.286,0.588,0.454
"Cc1c2c(nn1C)CSCc1cc(n(C)n1)CSc1cc(c3ccccc3c1)OCCCc1c(C(=O)O)n(C)c3c-2c(Cl)ccc13 [AZD5991] + Cc1cc2ncnn2cc1Nc1ncc2c(n1)n(C1CCOCC1)c(=O)n2C [AZD7648] (first compound max 1 µM, 7x7, partner max 10 µM)",0.251,0.654,0.556,0.332,0.388,0.313,0.52,0.85,0.22,0.82,0.219,0.984,0.257,0.183,0.27,0.48,0.999,0.358,0.478,0.298
"C[C@@H]1COCCN1c1cc(C2([S@](C)(=N)=O)CC2)nc(-c2ccnc3[nH]ccc23)n1 [AZD6738] + O=C(c1cc(Cc2n[nH]c(=O)c3ccccc23)ccc1F)N1CCN(C(=O)C2CC2)CC1 [Olaparib] (first compound max 10 µM, 7x7, partner max 10 µM)",0.679,0.577,0.983,0.966,0.699,0.662,0.404,0.339,0.961,0.974,0.347,0.902,0.537,0.692,0.816,0.326,0.641,0.443,0.619,0.422
"Cc1cc2ncnn2cc1Nc1ncc2c(n1)n(C1CCOCC1)c(=O)n2C [AZD7648] + C=CCn1c(=O)c2cnc(Nc3ccc(N4CCN(C)CC4)cc3)nc2n1-c1cccc(C(C)(C)O)n1 [AZD1775] (first compound max 10 µM, partner max 1 µM)",0.595,0.465,0.983,0.941,0.727,0.661,0.311,0.417,0.953,1,0.479,0.884,0.409,0.515,0.86,0.345,0.408,0.446,0.833,0.32
"Cc1cc2ncnn2cc1Nc1ncc2c(n1)n(C1CCOCC1)c(=O)n2C [AZD7648] + CCN(CCO)CCCOc1ccc2c(Nc3cc(CC(=O)Nc4cccc(F)c4)[nH]n3)ncnc2c1 [AZD2811] (first compound max 10 µM, 7x7, partner max 1 µM)",0.215,0.354,0.53,0.49,0.885,0.288,0.455,0.35,0.336,0.948,0.185,0.605,0.323,0.254,0.312,0.455,0.595,0.491,0.24,0.352
"Cc1cc2ncnn2cc1Nc1ncc2c(n1)n(C1CCOCC1)c(=O)n2C [AZD7648] + CN(C)CCCOc1ccc(-c2ccc3ncc4c(c3c2)n(C2CCOCC2)c(=O)n4C)cn1 [AZD0156] (first compound max 10 µM, 7x7, partner max 1 µM)",0.18,0.321,0.295,0.388,0.366,0.295,0.174,0.369,0.202,0.604,0.203,0.384,0.216,0.236,0.28,0.314,0.246,0.42,0.165,0.268
"Cc1cc2ncnn2cc1Nc1ncc2c(n1)n(C1CCOCC1)c(=O)n2C [AZD7648] + C[C@@H]1COCCN1C2=NC(=NC(=C2)C3(CC3)[S@](=N)(=O)C)C4=C5C=CNC5=NC=C4 [AZD6738] (first compound max 10 µM, 7x7, partner max 10 µM)",0.694,0.435,0.986,0.936,0.773,0.743,0.405,0.331,0.947,1,0.365,0.839,0.489,0.555,0.805,0.349,0.592,0.488,0.801,0.383
"Cc1cc2ncnn2cc1Nc1ncc2c(n1)n(C1CCOCC1)c(=O)n2C [AZD7648] + O=C(c1cc(Cc2n[nH]c(=O)c3ccccc23)ccc1F)N1CCN(C(=O)C2CC2)CC1 [Olaparib] (first compound max 10 µM, 7x7, partner max 10 µM)",0.101,0.304,0.826,0.71,0.28,0.283,0.15,0.233,0.17,0.444,0.129,0.73,0.238,0.147,0.241,0.241,0.264,0.28,0.0648,0.154
"COc1cccc2c1C(=O)c1c(O)c3c(c(O)c1C2=O)C[C@@](O)(C(=O)CO)C[C@@H]3O[C@H]1C[C@H](N)[C@H](O)[C@H](C)O1 [Doxorubicin] + Cc1cc2ncnn2cc1Nc1ncc2c(n1)n(C1CCOCC1)c(=O)n2C [AZD7648] (first compound max 1 µM, 7x7, partner max 10 µM)",0.82,0.501,0.99,1,0.826,0.76,0.702,0.81,0.822,0.943,0.145,0.988,0.569,0.506,0.748,0.711,0.376,0.867,0.925,0.556
"COc1cccc(OCCCN)c1-c1cc(Nc2cnc(C#N)cn2)n[nH]1 [Prexasertib] + C=CCn1c(=O)c2cnc(Nc3ccc(N4CCN(C)CC4)cc3)nc2n1-c1cccc(C(C)(C)O)n1 [AZD1775] (first compound max 1 µM, partner max 1 µM)",0.957,0.954,0.997,0.99,0.798,0.844,0.847,0.756,0.992,1,0.723,0.956,0.628,0.662,0.932,0.435,0.957,0.742,0.97,0.598
"COc1cccc(OCCCN)c1-c1cc(Nc2cnc(C#N)cn2)n[nH]1 [Prexasertib] + CCc1c2c(nc3ccc(O)cc13)-c1cc3c(c(=O)n1C2)COC(=O)[C@]3(O)CC [SN-38] (first compound max 1 µM, 7x7, partner max 0.3 µM)",0.938,0.946,1,1,0.984,0.988,0.937,0.808,1,1,0.659,0.938,0.573,0.756,0.894,0.903,0.979,0.894,0.984,0.642
"COc1cccc(OCCCN)c1-c1cc(Nc2cnc(C#N)cn2)n[nH]1 [Prexasertib] + CN(C)CCCOc1ccc(-c2ccc3ncc4c(c3c2)n(C2CCOCC2)c(=O)n4C)cn1 [AZD0156] (first compound max 1 µM, 7x7, partner max 1 µM)",0.861,0.81,0.999,0.987,0.806,0.863,0.654,0.48,0.988,1,0.606,0.956,0.532,0.609,0.85,0.349,0.888,0.304,0.94,0.42
"COc1cccc(OCCCN)c1-c1cc(Nc2cnc(C#N)cn2)n[nH]1 [Prexasertib] + C[C@@H]1COCCN1C2=NC(=NC(=C2)C3(CC3)[S@](=N)(=O)C)C4=C5C=CNC5=NC=C4 [AZD6738] (first compound max 1 µM, 7x7, partner max 10 µM)",0.901,0.821,0.998,0.97,0.785,0.867,0.731,0.432,0.99,1,0.566,0.938,0.548,0.639,0.879,0.278,0.898,0.555,0.943,0.451
